# According to PubChem BioAssay (NCI):
#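 Briefly, cells in 96-well plates were exposed to five compound concentrations for 48 h, and endpoints were estimated by linear interpolation. GI50 is the concentration that inhibits growth by half. At the TGI there is no net growth.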
# How the values were obtained:
# Test in all cases: NCI tumour cell line growth inhibition, 48 h
# SK-MEL-28 melanoma = test system: SK-MEL-28 melanoma
# UO-31 renal = test system: UO-31 renal
# OVCAR-3 ovarian = test system: OVCAR-3 ovarian
# SNB-75 CNS = test system: SNB-75 CNS
# EKVX NSCLC = test system: EKVX NSCLC
# M14 melanoma = test system: M14 melanoma
# HOP-62 NSCLC = test system: HOP-62 NSCLC
# UACC-257 melanoma = test system: UACC-257 melanoma
# HL-60(TB) leukemia = test system: HL-60(TB) leukemia
# NCI-H522 lung = test system: NCI-H522 lung
Structure (SMILES),TGI (SK-MEL-28 melanoma) [µM],TGI (UO-31 renal) [µM],TGI (OVCAR-3 ovarian) [µM],TGI (SNB-75 CNS) [µM],TGI (EKVX NSCLC) [µM],TGI (M14 melanoma) [µM],TGI (HOP-62 NSCLC) [µM],TGI (UACC-257 melanoma) [µM],TGI (HL-60(TB) leukemia) [µM],TGI (NCI-H522 lung) [µM],GI50 (SK-MEL-28 melanoma) [µM],GI50 (UO-31 renal) [µM],GI50 (OVCAR-3 ovarian) [µM],GI50 (SNB-75 CNS) [µM],GI50 (HL-60(TB) leukemia) [µM],GI50 (M14 melanoma) [µM],GI50 (HOP-62 NSCLC) [µM],GI50 (UACC-257 melanoma) [µM],GI50 (NCI-H522 lung) [µM],GI50 (EKVX NSCLC) [µM]
O=C(CC1(O)C(=O)Nc2c(Cl)ccc(Cl)c21)c1ccc(Cl)cc1Cl (stereo not drawn),38.8,37.1,30.9,46.9,44,25.9,59.5,25.1,,,,,,,,,,,,
CCOC(=O)c1c(SCCN2CCOCC2)n(-c2ccccc2)c(=S)n(-c2ccccc2)c1=O,53.8,> 100,> 100,> 100,,> 100,,48.1,49.2,> 100,,,,,,,,,,
Cc1ccc2oc(=O)c(-c3ccccc3)nc2c1,> 100,95.1,> 100,> 100,> 100,> 100,> 100,> 100,,48.7,,,,,,,,,,
C=CC1=C(C)C2=NC1=CC1=NC(=CC3=C(C)C4=C(O)[C@H](C(=O)OC)C(=C5NC(=C2)[C@@H](C)[C@@H]5CCC(=O)O)C4=N3)C(CC)=C1C,3.54,11.7,,8.25,,,> 33.5,42.7,,,,,,,,,,,,
O=C1[C@H]2ON(c3ccccc3)C(c3ccco3)[C@H]2C(=O)N1c1ccc(Cc2ccc(N3C(=O)[C@@H]4ON(c5ccccc5)C(c5ccco5)[C@@H]4C3=O)cc2)cc1 (stereo partly drawn),> 100,> 100,> 100,> 100,,> 100,> 100,> 100,> 100,,,,,,,,,,,
COc1ccc(-c2cnoc2-c2cc(OC)c3c(c2)OCCO3)cc1,> 100,> 100,1.55,34.4,,> 46.8,56.6,> 100,0.975,0.0842,10.1,0.283,< 0.0172,0.0195,0.0289,0.0274,0.0319,11.5,< 0.0141,
CC(C)(C)c1ccc(OC2CCO2)cc1 (stereo not drawn),> 100,> 100,> 100,> 100,90.1,> 100,> 100,87.3,,52.5,,,,,,,,,,
O=C1c2ccccc2-c2c1c1ccccc1c(=O)n2CCNCCn1c2c(c3ccccc3c1=O)C(=O)c1ccccc1-2,,> 25,> 25,,> 25,> 25,> 25,> 25,,> 25,,> 25,> 25,,,> 25,> 25,> 25,> 25,> 25
Cc1cccc(C)c1N1C(=O)C(=O)C(c2nc3ccccc3s2)C(=Nc2cccc3c(=O)[nH][nH]c(=O)c23)C1=O (stereo not drawn),> 100,> 100,> 100,> 100,> 100,> 100,> 100,> 100,> 100,,,,,,,,,,,
O=C1/C(=C/c2cccc([N+](=O)[O-])c2)Sc2scc(-c3ccc([N+](=O)[O-])cc3)[n+]21,62.3,24.1,> 100,32.1,61.1,> 100,38.3,69.8,,,,,,,,,,,,
CC1=NN(C(=O)c2ccncc2)C(=O)C1N=Nc1ccc(F)cc1 (stereo not drawn),> 100,> 100,> 100,66.8,> 100,> 100,,> 100,> 100,> 100,,,,,,,,,,
CC1(O)CCn2c(=O)c3cc4ccccc4cc3c(=O)n2C1O (stereo not drawn),> 100,,> 100,,> 100,,> 100,> 100,> 100,50.7,,,,,,,,,,
O=C(O)c1ccccc1C(=O)c1ccc2c(c1)Cc1ccccc1-2,> 100,> 100,> 100,> 100,> 100,> 100,> 100,> 100,,> 100,,,,,,,,,,
OCc1ccc(N2CCOCC2)cc1Cl,> 100,> 100,> 92,> 100,,> 100,> 100,24.1,> 100,> 100,> 100,> 100,35.2,> 100,> 100,> 100,> 100,7.2,> 100,
CCCCCCCCCCCCCC[n+]1cccc(C(N)=O)c1,5.52,26.3,5.02,2.57,6.08,3.6,3.41,8.46,,6.24,2.01,9.42,1.93,1.06,,1.58,1.35,2.34,1.31,1.97
O=C1c2cccc3cccc(c23)C(=O)N1O,> 100,> 100,> 100,80.2,> 100,> 100,,> 100,> 100,> 100,,,,,,,,,,
Cc1cccc(N(CC(=O)O)S(=O)(=O)c2ccccc2)c1,> 100,> 100,> 100,> 100,> 100,> 100,,> 100,> 100,> 100,,,,,,,,,,
c1ccc2[nH]c(CNc3ccc(C4C[Se]N=N4)cc3)nc2c1 (stereo not drawn),> 100,> 100,96.9,> 100,,> 100,> 100,,77.7,> 100,,,,,,,,,,
COc1ccc(C2Oc3c(c(O)cc4c3[C@H](c3ccc(O)cc3O)[C@H](O)C(c3ccc(O)c(O)c3)O4)C[C@@H]2O)cc1O (stereo partly drawn),,> 100,> 100,> 100,> 100,> 100,> 100,> 100,> 100,> 100,,,,,,,,,,
CSc1ccc(N(C)c2nc(C)nc3c2CCC3)cc1,36.6,,< 0.01,42.1,82,,21.3,48.4,< 0.01,< 0.01,1.38,,< 0.01,< 0.01,< 0.01,,< 0.01,11.6,< 0.01,< 0.01
